In EP0672419A1, “BLOOD PRESSURE REGULATOR” (Asahi Kasei Kogyo Kabushiki Kaisha, priority 1991, dated 1995):

What was measured:
adult mongrel dogs [1] = experiment: Phenylephrine-induced hypertension in four anesthetized dogs (Example 8); assay type: in vivo, dog; settings: 10 µg/kg/hr on top of phenylephrine 10 µg/kg/min
Experimental: Example 6 was repeated by substantially almost same manner using four adult mongrel dogs, mean body weight 12.3±3.0 kg, applying same anesthetic condition. After setting up the experiment at more than 60 minutes passing and confirming to stabilize the depth of anesthesia and blood flow, phenylephrine (hypertensor) 10 µg/kg/min was administered.
Further after 10 minutes passed, the active ingredient, desalanyl-deamino-c-CGRP 10 µg/kg/hr was administered and at 10 min. and 20 min. after administration of the active ingredient, heart rate (HR) and mean a artery pressure (MAP) were measured.

adult mongrel dogs [2] = experiment: Induced hypotension in ten halothane-anesthetized dogs, average arterial blood pressure kept at 60 mmHg for 60 min (Example 6); assay type: in vivo, dog; settings: mean ± S.D.
Experimental: Adult mongrel dog, mean body weight 12.7 ± 3.1 kg, was anesthesized with pentobarbital 25 mg/kg, intratarcheally cannulated and maintained anesthetic condition by 0.87% halothane-oxygen (1 MAC, minimum anesthetic concentration). Respiration was controlled, by using respirator (Harvard Corp., Model 613E ) at Paco₂ 35±5 mmHg.
Catheters were introduced to right femoral vein and artery for monitering arterial blood pressure, arterial blood gas analysis and infusion, and left cardiac catheter was introduced to left femoral […] to monitor left ventricular pressure. The changes in left ventricular pressure were differentiated continuously using a pressure processor (Nihon Koden Co., EQ-601G) to measure a maximum left ventricular systolic ratio (LV dp/dt max). The active ingredient of the present invention was administered to left femoral vein. Pulmonary arterial catheter (7F, Swan-Ganz® catheter) was introduced through right external jugular vein to monitor pulmonary artery pressure (PAP), paulmonary arterial wedge pressure (pulmonary capillary wedge pressure, PCWP) and cardiac output (CO). Pressure was monitored by using disporsable pressure monitoring kit (Gould Corp.), and electrocardiogram, arteriala pressure, left ventricle pressure (LVP) and maximum left ventricular systolic ratio (LV dp/dt max) were monitored by polygraph (Nihon Koden Co.) . Cardiac output (CO) was measured by thermal dilution method using cardiac output monitor (Nihon Koden Co Model MTC6210). Blood gas analysis was made by using automatic blood gas analyser (Radiometer Corp. ABL3). Mean artery pressure (MAP), cardiac index(CI) stroke volume index (SI), systemic vascular resistance (SVR), pulmonary vascular resistance (PVR), left ventricle stroke work index (LVSWI) and coronary perfusion pressure (CPP) were calculated by standard calculation equations, respectively.
To maintain low blood pressure, the active ingredient was intraveneously administered for 60 minutes with maintaining maximum dose at 40 µg/kg and adjusting to maintain mean arteraial pressure at 50 mmHg. Physiological saline was used for maintenance infusion and administered in combination with the active ingredient at 7 ml/kg/hr. At blood sampling two fold volume of hydroxyethylstarch (6-HES) was supplementary administered. Body temperature was maintained at 37 ± 1°C by covering with blanket.
Example 5 was repeated by substantially almost same manner using ten adult mongrel dogs, mean body weight 14.7±2.1 kg, applying same anesthetic condition with maintaining artificially hypotensive with average arterial blood pressure at 60 mmHg for 60 min., and administering the active ingredient desalanyl-deamino-c-CGRP.
A value at time more than 60 minutes passed after completing the start of the experiment and stabilizing a depth of anesthesia and blood flow, was set as control (S₁). Monitorings were performed at 30 min. and 60 min. under reduced blood pressure in induced hypotension, and at 10 min. and 30 min. after terminating the reduced blood pressure in induced hypotension (after stopping administration), for totally five points of time.
Results are shown by mean ± S.D.
Amount of the active ingredient for maintaining average arterial blood pressure at 60 mmHg for 60 minutes was 5 µg-115 µg/kg.

[3] = after administ. of CGRP 10 min(20min)
[4] = after administ. of CGRP 20 min(30min)
[5] = after terminating reduced blood pressure 10 min.
[6] = after terminating reduced blood pressure 30 min.
[7] = reduced blood pressure 30 min., MAP kept at 60 mmHg
[8] = reduced blood pressure 60 min., MAP kept at 60 mmHg

desalanyl-deamino-c-CGRP
HR: Heart rate (adult mongrel dogs [1]; [3]): 103 beats/min
MAP: Mean artery pressure (adult mongrel dogs [1]; [3]): 104.8 ±2.7 mmHg
HR: Heart rate (adult mongrel dogs [1]; [4]): 104±2.8 beat/min
MAP: Mean artery pressure (adult mongrel dogs [1]; [4]): 184±4.9 mmHg
CI: Cardiac index (adult mongrel dogs [2]; [5]): 4.025±0.685 ** 1/min/m²
CO: Cardiac output (adult mongrel dogs [2]; [5]): 2.751±0.438 * 1/min
CPP: Coronary perfusion pressure (adult mongrel dogs [2]; [5]): 50.5±5.5 mmHg
CVP: Central venous pressure (adult mongrel dogs [2]; [5]): 2.9±1.5 mmHg
DAP: Diastolic artery pressure (adult mongrel dogs [2]; [5]): 59.2±5.1 mmHg
DPAP: Diastolic pulmonary artery pressure (adult mongrel dogs [2]; [5]): 11.3±5.2 mmHg
EtCO₂: Expiration terminal CO₂ pressure (adult mongrel dogs [2]; [5]): 39.5±5.8 mmHg
HR: Heart rate (adult mongrel dogs [2]; [5]): 158.8±33.8 beat/min
LV dp/dt max: maximum left ventricular systolic ratio (adult mongrel dogs [2]; [5]): 3370.0±783.2 mmHg/sec
LVEP: Left ventricle end pressure (adult mongrel dogs [2]; [5]): 0.1±0.3 mmHg
LVP: Left ventricle pressure (adult mongrel dogs [2]; [5]): 119.5±16.3 mmHg
LVSWI: Left ventricle stroke work index (adult mongrel dogs [2]; [5]): 23.970±6.998 g.m/beat/m²
MAP: Mean artery pressure (adult mongrel dogs [2]; [5]): 75.7±4.3 mmHg
MPAP: Mean pulmonary artery pressure (adult mongrel dogs [2]; [5]): 18.3±6.0 mmHg
PCWP: Pulmonary capillary wedge pressure (adult mongrel dogs [2]; [5]): 9.2±4.1 mmHg
PVR: Pulmonary vascular resistance (adult mongrel dogs [2]; [5]): 273.30±100.09 dynes · sec/cm⁵
RPP: Rate pressure products (adult mongrel dogs [2]; [5]): 14920.0±3480.0 mmHg.beat/min
RVSWI: Right ventricle stroke work index (adult mongrel dogs [2]; [5]): 5.209±1.501 g.m/beat/m²
SAP: Systolic artery pressure (adult mongrel dogs [2]; [5]): 94.4±7.2 mmHg
SI: Stroke index (adult mongrel dogs [2]; [5]): 26.300±6.720 ml/HR/m²
SPAP: Systolic pulmonary artery pressure (adult mongrel dogs [2]; [5]): 26.8±7.2 mmHg
SV: Stroke volumes (adult mongrel dogs [2]; [5]): 18.2 ± 5.63 mL/beat
SVR: Systemic vascular resistance (adult mongrel dogs [2]; [5]): 2162.0±419.2 dynes · sec/cm⁵
CI: Cardiac index (adult mongrel dogs [2]; [6]): 3.638±0.587 1/min/m²
CO: Cardiac output (adult mongrel dogs [2]; [6]): 2.487 ± 0.378 min⁻¹
CPP: Coronary perfusion pressure (adult mongrel dogs [2]; [6]): 63.5±5.3 mmHg
CVP: Central venous pressure (adult mongrel dogs [2]; [6]): 3.2±1.1 mmHg
DAP: Diastolic artery pressure (adult mongrel dogs [2]; [6]): 74.1±4.7 mmHg
DPAP: Diastolic pulmonary artery pressure (adult mongrel dogs [2]; [6]): 11.3±5.4 mmHg
EtCO₂: Expiration terminal CO₂ pressure (adult mongrel dogs [2]; [6]): 39.3±5.9 mmHg
HR: Heart rate (adult mongrel dogs [2]; [6]): 151.6±27.9 beat/min
LV dp/dt max: maximum left ventricular systolic ratio (adult mongrel dogs [2]; [6]): 3220.0±708.4 mmHg/sec
LVEP: Left ventricle end pressure (adult mongrel dogs [2]; [6]): 0.0±0.0 mmHg
LVP: Left ventricle pressure (adult mongrel dogs [2]; [6]): 132.3±20.0 mmHg
LVSWI: Left ventricle stroke work index (adult mongrel dogs [2]; [6]): 27.680±7.370 g.m/beat/m²
MAP: Mean artery pressure (adult mongrel dogs [2]; [6]): 92.8±6.3 mmHg
MPAP: Mean pulmonary artery pressure (adult mongrel dogs [2]; [6]): 18.7±6.3 mmHg
PCWP: Pulmonary capillary wedge pressure (adult mongrel dogs [2]; [6]): 10.6±4.5 mmHg
PVR: Pulmonary vascular resistance (adult mongrel dogs [2]; [6]): 269.10±109.58 dynes · sec/cm⁵
RPP: Rate pressure products (adult mongrel dogs [2]; [6]): 18100.0±3938.4 mmHg.beat/min
RVSWI: Right ventricle stroke work index (adult mongrel dogs [2]; [6]): 4.882±1.138 g.m/beat/m²
SAP: Systolic artery pressure (adult mongrel dogs [2]; [6]): 119.4±10.1 mmHg
SI: Stroke index (adult mongrel dogs [2]; [6]): 24.760±6.720 ml/HR/m²
SPAP: Systolic pulmonary artery pressure (adult mongrel dogs [2]; [6]): 27.4±7.2 mmHg
SV: Stroke volumes (adult mongrel dogs [2]; [6]): 17 ± 5.07 mL/beat
SVR: Systemic vascular resistance (adult mongrel dogs [2]; [6]): 2961.0±700.9 dynes · sec/cm⁵
CI: Cardiac index (adult mongrel dogs [2]; [7]): 3.418±0.692 1/min/m²
CO: Cardiac output (adult mongrel dogs [2]; [7]): 2.348 ± 0.528 min⁻¹
CPP: Coronary perfusion pressure (adult mongrel dogs [2]; [7]): 38.3±4.5 mmHg
CVP: Central venous pressure (adult mongrel dogs [2]; [7]): 2.5±1.1 mmHg
DAP: Diastolic artery pressure (adult mongrel dogs [2]; [7]): 47.3±2.8 mmHg
DPAP: Diastolic pulmonary artery pressure (adult mongrel dogs [2]; [7]): 9.9±4.0 mmHg
EtCO₂: Expiration terminal CO₂ pressure (adult mongrel dogs [2]; [7]): 38.5±5.6 mmHg
HR: Heart rate (adult mongrel dogs [2]; [7]): 149.3±31.7 beat/min
LV dp/dt max: maximum left ventricular systolic ratio (adult mongrel dogs [2]; [7]): 3070.0±771.8 mmHg/sec
LVEP: Left ventricle end pressure (adult mongrel dogs [2]; [7]): 0.0±0.0 mmHg
LVP: Left ventricle pressure (adult mongrel dogs [2]; [7]): 102.7±14.1 mmHg
LVSWI: Left ventricle stroke work index (adult mongrel dogs [2]; [7]): 16.906±5.750 g.m/beat/m²
MAP: Mean artery pressure (adult mongrel dogs [2]; [7]): 60.4±0.7 mmHg
MPAP: Mean pulmonary artery pressure (adult mongrel dogs [2]; [7]): 15.6±5.3 mmHg
PCWP: Pulmonary capillary wedge pressure (adult mongrel dogs [2]; [7]): 9.0±4.0 mmHg
PVR: Pulmonary vascular resistance (adult mongrel dogs [2]; [7]): 231.10±80.62 dynes · sec/cm⁵
RPP: Rate pressure products (adult mongrel dogs [2]; [7]): 11357.0±2260.5 mmHg.beat/min
RVSWI: Right ventricle stroke work index (adult mongrel dogs [2]; [7]): 3.979±1.239 g.m/beat/m²
SAP: Systolic artery pressure (adult mongrel dogs [2]; [7]): 76.5±4.8 mmHg
SI: Stroke index (adult mongrel dogs [2]; [7]): 23.810±6.952 ml/HR/m²
SPAP: Systolic pulmonary artery pressure (adult mongrel dogs [2]; [7]): 23.0±6.2 mmHg
SV: Stroke volumes (adult mongrel dogs [2]; [7]): 16.5 ± 5.78 mL/beat
SVR: Systemic vascular resistance (adult mongrel dogs [2]; [7]): 2054.0±455.6 dynes · sec/cm⁵
CI: Cardiac index (adult mongrel dogs [2]; [8]): 4.006 ±0.771 ** 1/min/m²
CO: Cardiac output (adult mongrel dogs [2]; [8]): 2.739 ±0.518 * 1/min
CPP: Coronary perfusion pressure (adult mongrel dogs [2]; [8]): 38.3±4.9 mmHg
CVP: Central venous pressure (adult mongrel dogs [2]; [8]): 2.2±1.2 mmHg
DAP: Diastolic artery pressure (adult mongrel dogs [2]; [8]): 47.7±2.6 mmHg
DPAP: Diastolic pulmonary artery pressure (adult mongrel dogs [2]; [8]): 11.3±4.9 mmHg
EtCO₂: Expiration terminal CO₂ pressure (adult mongrel dogs [2]; [8]): 39.8±6.9 mmHg
HR: Heart rate (adult mongrel dogs [2]; [8]): 154.3 ± 33.8 beat/min
LV dp/dt max: maximum left ventricular systolic ratio (adult mongrel dogs [2]; [8]): 3210.0±749.0 mmHg/sec
LVEP: Left ventricle end pressure (adult mongrel dogs [2]; [8]): 0.0±0.0 mmHg
LVP: Left ventricle pressure (adult mongrel dogs [2]; [8]): 104.7±16.3 mmHg
LVSWI: Left ventricle stroke work index (adult mongrel dogs [2]; [8]): 18.949±6.280 g.m/beat/m²
MAP: Mean artery pressure (adult mongrel dogs [2]; [8]): 60.1±0.9 mmHg
MPAP: Mean pulmonary artery pressure (adult mongrel dogs [2]; [8]): 17.7±5.9 mmHg
PCWP: Pulmonary capillary wedge pressure (adult mongrel dogs [2]; [8]): 9.4±4.7 mmHg
PVR: Pulmonary vascular resistance (adult mongrel dogs [2]; [8]): 251.20±97.14 dynes · sec/cm⁵
RPP: Rate pressure products (adult mongrel dogs [2]; [8]): 11462.0±2765.1 mmHg.beat/min
RVSWI: Right ventricle stroke work index (adult mongrel dogs [2]; [8]): 5.380±1.747 g.m/beat/m²
SAP: Systolic artery pressure (adult mongrel dogs [2]; [8]): 74.4±4.9 mmHg
SI: Stroke index (adult mongrel dogs [2]; [8]): 27.030 ±7.664 ml/HR/m²
SPAP: Systolic pulmonary artery pressure (adult mongrel dogs [2]; [8]): 25.5±7.3 mmHg
SV: Stroke volumes (adult mongrel dogs [2]; [8]): 18.5 ± 5.94 mL/beat
SVR: Systemic vascular resistance (adult mongrel dogs [2]; [8]): 1748.0±409.1 dynes · sec/cm⁵
